Measurements from patent publication US10682370B2, “Topical antiviral composition containing a local anesthetic and method of making the same” (priority 2013, dated 2020).
Structures can show the parent of a compound that is named as a salt.

Legend:
[1] = system: HSV-1; details: in vitro; cited from earlier work
[2] = Accelerated stability of sorivudine/lidocaine cream formulas stored in 40° C./75% RH; format: physicochemical
Excerpt: In the above Table 3, the six (6)-month accelerated stability assay data's for both formulations, i.e. Example 8 and Example 9 (containing BHT) were stable.

[3] = administered concurrently with 5-FU; cited from earlier work
[4] = acidic environment, accelerated test
[5] = neutral environment, 6 month accelerated test

SMILES	Selectivity ratio for the inhibitory activity against HSV-1 [1]	Change of assay (in words) [2, 4]	Change of assay (in words) [2, 5]	Assay of sorivudine remaining [2, 5] [%]	Toxicity on concurrent administration with 5-fluorouracil (5-FU) [3]
Nc1nc2c(ncn2COCCO)c(=O)[nH]1 [Acyclovir, acyclovir]	about 2000				
CCN(CC)CC(=O)Nc1c(C)cccc1C [lidocaine HCl, 2-(diethylamino)-N-(2,6-dimethylphenyl)-acetamide]		no change	almost no change		
O=c1[nH]c(=O)n([C@@H]2O[C@H](CO)[C@@H](O)[C@@H]2O)cc1/C=C/Br [sorivudine]		no change		66	major toxicity (myelosuppression)
